Key:
[1] = test system: CNS:U251; design: method as in earlier work; conditions: NCI-60 panel; ref [4],[5],[6],[7]; cited from earlier work
[2] = test system: CO:HCT-116; design: method as in earlier work; conditions: NCI-60 panel; ref [4],[5],[6],[7]; cited from earlier work
[3] = test system: CO:KM12; design: method as in earlier work; conditions: NCI-60 panel; ref [4],[5],[6],[7]; cited from earlier work
[4] = test system: LE:MOLT-4; design: method as in earlier work; conditions: NCI-60 panel; ref [4],[5],[6],[7]; cited from earlier work
[5] = test system: LC:HOP-62; design: method as in earlier work; conditions: NCI-60 panel; ref [4],[5],[6],[7]; cited from earlier work
[6] = test system: LC:NCI-H23; design: method as in earlier work; conditions: NCI-60 panel; ref [4],[5],[6],[7]; cited from earlier work
[7] = test system: LC:NCI-H522; design: method as in earlier work; conditions: NCI-60 panel; ref [4],[5],[6],[7]; cited from earlier work
[8] = test system: OV:NCI/ADR-RES; design: method as in earlier work; conditions: NCI-60 panel; ref [4],[5],[6],[7]; cited from earlier work
[9] = test system: RE:ACHN; design: method as in earlier work; conditions: NCI-60 panel; ref [4],[5],[6],[7]; cited from earlier work
[10] = test system: RE:CAKI-1; design: method as in earlier work; conditions: NCI-60 panel; ref [4],[5],[6],[7]; cited from earlier work
[11] = test system: RE:SN12C; design: method as in earlier work; conditions: NCI-60 panel; ref [4],[5],[6],[7]; cited from earlier work
[12] = target: ADRA1B (Homo sapiens, UniProt P35368); test: gpcrMAX PathHunter beta-arrestin
[13] = target: ADRA2A (Homo sapiens, UniProt P08913); test: gpcrMAX PathHunter beta-arrestin
[14] = target: BRS3 (Homo sapiens, UniProt P32247); test: gpcrMAX PathHunter beta-arrestin
[15] = target: CCR2 (Homo sapiens, UniProt P41597); test: gpcrMAX PathHunter beta-arrestin
[16] = target: CCR8 (Homo sapiens, UniProt P51685); test: gpcrMAX PathHunter beta-arrestin
[17] = target: CMKLR1 (Homo sapiens, UniProt Q99788); test: gpcrMAX PathHunter beta-arrestin
[18] = target: CRHR2 (Homo sapiens, UniProt Q13324); test: gpcrMAX PathHunter beta-arrestin
[19] = target: CX3CR1 (Homo sapiens, UniProt P49238); test: gpcrMAX PathHunter beta-arrestin
[20] = target: DRD3 (Homo sapiens, UniProt P35462); test: gpcrMAX PathHunter beta-arrestin
[21] = target: DRD4 (Homo sapiens, UniProt P21917); test: gpcrMAX PathHunter beta-arrestin
[22] = target: EDG1 (Homo sapiens, UniProt P21453); test: gpcrMAX PathHunter beta-arrestin
[23] = target: EDG6 (Homo sapiens, UniProt O95977); test: gpcrMAX PathHunter beta-arrestin
[24] = target: F2RL3 (Homo sapiens, UniProt Q96RI0); test: gpcrMAX PathHunter beta-arrestin
[25] = target: GLP1R (Homo sapiens, UniProt P43220); test: gpcrMAX PathHunter beta-arrestin
[26] = target: GPR103 (Homo sapiens, UniProt Q96P65); test: gpcrMAX PathHunter beta-arrestin
[27] = target: HCRTR2 (Homo sapiens, UniProt O43614); test: gpcrMAX PathHunter beta-arrestin
[28] = target: HTR1A (Homo sapiens, UniProt P08908); test: gpcrMAX PathHunter beta-arrestin
[29] = target: HTR1E (Homo sapiens, UniProt P28566); test: gpcrMAX PathHunter beta-arrestin
[30] = target: LHCGR (Homo sapiens, UniProt P22888); test: gpcrMAX PathHunter beta-arrestin
[31] = target: MC5R (Homo sapiens, UniProt P33032); test: gpcrMAX PathHunter beta-arrestin
[32] = target: MRGPRX1 (Homo sapiens, UniProt Q96LB2); test: gpcrMAX PathHunter beta-arrestin
[33] = target: NPBWR1 (Homo sapiens, UniProt P48145); test: gpcrMAX PathHunter beta-arrestin
[34] = target: OPRM1 (Homo sapiens, UniProt P35372); test: gpcrMAX PathHunter beta-arrestin
[35] = target: OXTR (Homo sapiens, UniProt P30559); test: gpcrMAX PathHunter beta-arrestin
[36] = target: P2RY12 (Homo sapiens, UniProt Q9H244); test: gpcrMAX PathHunter beta-arrestin
[37] = target: PROKR1 (Homo sapiens, UniProt Q8TCW9); test: gpcrMAX PathHunter beta-arrestin
[38] = target: PTGER2 (Homo sapiens, UniProt P43116); test: gpcrMAX PathHunter beta-arrestin
[39] = target: SSTR1 (Homo sapiens, UniProt P30872); test: gpcrMAX PathHunter beta-arrestin
[40] = target: TACR1 (Homo sapiens, UniProt P25103); test: gpcrMAX PathHunter beta-arrestin
[41] = target: TACR3 (Homo sapiens, UniProt P29371); test: gpcrMAX PathHunter beta-arrestin

P2RY12, sequence (Q9H244 whole entry, one chain of several): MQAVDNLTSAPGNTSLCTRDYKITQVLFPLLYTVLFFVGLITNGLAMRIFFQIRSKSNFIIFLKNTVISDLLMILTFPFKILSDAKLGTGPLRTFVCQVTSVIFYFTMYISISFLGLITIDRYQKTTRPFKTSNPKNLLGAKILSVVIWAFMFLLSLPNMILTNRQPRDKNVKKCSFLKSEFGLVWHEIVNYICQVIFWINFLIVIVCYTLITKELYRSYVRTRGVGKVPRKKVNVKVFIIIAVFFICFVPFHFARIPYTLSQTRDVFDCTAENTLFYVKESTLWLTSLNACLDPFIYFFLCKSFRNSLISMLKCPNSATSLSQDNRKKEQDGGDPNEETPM
MRGPRX1, sequence (Q96LB2 whole entry): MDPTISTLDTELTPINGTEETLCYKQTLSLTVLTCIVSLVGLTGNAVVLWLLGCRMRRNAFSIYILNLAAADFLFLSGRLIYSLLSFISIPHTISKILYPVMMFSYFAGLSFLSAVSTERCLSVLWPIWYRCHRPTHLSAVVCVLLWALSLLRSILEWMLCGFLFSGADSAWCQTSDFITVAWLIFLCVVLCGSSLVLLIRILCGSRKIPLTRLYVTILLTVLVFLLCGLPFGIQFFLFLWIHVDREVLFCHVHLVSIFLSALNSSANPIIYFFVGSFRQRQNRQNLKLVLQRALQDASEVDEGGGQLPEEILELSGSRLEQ
HTR1E, sequence (P28566 whole entry): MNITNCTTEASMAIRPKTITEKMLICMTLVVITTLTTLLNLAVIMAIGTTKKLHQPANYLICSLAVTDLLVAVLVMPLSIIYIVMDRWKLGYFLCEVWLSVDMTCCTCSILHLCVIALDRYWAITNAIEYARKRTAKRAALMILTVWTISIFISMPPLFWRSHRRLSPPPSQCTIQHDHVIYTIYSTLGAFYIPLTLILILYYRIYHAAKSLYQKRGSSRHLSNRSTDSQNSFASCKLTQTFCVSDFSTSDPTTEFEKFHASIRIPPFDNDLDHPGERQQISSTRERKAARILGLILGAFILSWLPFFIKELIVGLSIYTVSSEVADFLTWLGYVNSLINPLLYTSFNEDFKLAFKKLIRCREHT
GPR103, sequence (Q96P65 whole entry): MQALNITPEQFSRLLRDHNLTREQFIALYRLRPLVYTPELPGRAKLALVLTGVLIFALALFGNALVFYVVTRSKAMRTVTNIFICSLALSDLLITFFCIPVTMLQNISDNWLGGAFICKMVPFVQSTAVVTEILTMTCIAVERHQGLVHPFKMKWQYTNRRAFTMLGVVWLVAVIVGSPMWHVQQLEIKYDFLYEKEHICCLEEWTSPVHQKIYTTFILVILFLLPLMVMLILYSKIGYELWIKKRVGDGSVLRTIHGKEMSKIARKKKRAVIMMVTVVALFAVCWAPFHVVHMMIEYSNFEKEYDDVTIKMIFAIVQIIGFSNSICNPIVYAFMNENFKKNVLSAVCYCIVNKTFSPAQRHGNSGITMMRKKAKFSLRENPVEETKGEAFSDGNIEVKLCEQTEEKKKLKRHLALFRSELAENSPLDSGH
SSTR1, sequence (P30872 whole entry): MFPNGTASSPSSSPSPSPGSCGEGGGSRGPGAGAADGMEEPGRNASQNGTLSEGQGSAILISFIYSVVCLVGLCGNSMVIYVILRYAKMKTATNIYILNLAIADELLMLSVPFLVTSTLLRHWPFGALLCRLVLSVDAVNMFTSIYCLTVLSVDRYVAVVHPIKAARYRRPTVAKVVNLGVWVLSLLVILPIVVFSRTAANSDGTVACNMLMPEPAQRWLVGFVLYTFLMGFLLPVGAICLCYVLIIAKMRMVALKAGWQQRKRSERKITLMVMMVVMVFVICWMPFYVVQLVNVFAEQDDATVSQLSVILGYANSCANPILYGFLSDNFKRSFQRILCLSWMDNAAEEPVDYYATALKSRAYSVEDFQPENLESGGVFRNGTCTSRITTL
TACR1, sequence (P25103 whole entry): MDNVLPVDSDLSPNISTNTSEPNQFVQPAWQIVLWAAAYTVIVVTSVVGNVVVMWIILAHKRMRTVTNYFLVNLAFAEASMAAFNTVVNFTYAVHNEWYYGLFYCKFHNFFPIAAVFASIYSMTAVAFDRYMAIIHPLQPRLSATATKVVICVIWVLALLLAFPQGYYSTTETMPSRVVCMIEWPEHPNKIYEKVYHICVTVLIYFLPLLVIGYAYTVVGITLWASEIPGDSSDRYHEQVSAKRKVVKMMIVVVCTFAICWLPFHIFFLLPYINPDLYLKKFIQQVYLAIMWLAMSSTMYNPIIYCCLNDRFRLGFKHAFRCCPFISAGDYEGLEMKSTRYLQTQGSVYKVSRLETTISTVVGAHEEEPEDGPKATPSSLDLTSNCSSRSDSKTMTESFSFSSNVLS
LHCGR, sequence (P22888 27-699): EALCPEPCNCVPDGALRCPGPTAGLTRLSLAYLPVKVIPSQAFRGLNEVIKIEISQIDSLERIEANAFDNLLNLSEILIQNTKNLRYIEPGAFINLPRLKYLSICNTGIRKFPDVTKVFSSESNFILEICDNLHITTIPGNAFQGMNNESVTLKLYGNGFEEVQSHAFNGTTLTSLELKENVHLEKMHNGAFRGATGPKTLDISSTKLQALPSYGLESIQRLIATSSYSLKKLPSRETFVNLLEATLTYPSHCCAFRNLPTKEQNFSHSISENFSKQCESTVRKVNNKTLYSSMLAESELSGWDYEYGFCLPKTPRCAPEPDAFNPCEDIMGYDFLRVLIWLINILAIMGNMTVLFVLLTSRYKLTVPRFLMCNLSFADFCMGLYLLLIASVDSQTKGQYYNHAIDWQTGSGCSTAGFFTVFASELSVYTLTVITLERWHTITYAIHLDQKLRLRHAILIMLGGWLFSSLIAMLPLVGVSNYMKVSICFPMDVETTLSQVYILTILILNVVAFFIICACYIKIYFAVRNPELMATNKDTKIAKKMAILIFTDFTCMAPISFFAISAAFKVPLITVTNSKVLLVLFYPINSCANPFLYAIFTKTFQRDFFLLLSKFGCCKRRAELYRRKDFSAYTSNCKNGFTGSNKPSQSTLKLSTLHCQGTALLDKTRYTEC
ADRA1B, sequence (P35368 whole entry): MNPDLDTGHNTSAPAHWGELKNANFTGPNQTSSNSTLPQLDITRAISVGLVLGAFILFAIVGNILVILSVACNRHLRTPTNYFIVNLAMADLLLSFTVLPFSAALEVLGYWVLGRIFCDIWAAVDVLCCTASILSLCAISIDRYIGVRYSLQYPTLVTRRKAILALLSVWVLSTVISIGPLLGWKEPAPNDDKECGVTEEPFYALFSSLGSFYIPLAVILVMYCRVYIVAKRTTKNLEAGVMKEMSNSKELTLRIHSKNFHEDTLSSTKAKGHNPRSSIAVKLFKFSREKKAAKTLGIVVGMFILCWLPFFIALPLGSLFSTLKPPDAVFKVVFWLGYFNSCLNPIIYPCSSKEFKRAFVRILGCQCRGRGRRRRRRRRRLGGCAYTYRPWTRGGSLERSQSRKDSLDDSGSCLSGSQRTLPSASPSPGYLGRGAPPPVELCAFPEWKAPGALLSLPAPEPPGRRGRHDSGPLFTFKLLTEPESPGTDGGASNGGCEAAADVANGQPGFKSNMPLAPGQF
ADRA2A, sequence (P08913 whole entry): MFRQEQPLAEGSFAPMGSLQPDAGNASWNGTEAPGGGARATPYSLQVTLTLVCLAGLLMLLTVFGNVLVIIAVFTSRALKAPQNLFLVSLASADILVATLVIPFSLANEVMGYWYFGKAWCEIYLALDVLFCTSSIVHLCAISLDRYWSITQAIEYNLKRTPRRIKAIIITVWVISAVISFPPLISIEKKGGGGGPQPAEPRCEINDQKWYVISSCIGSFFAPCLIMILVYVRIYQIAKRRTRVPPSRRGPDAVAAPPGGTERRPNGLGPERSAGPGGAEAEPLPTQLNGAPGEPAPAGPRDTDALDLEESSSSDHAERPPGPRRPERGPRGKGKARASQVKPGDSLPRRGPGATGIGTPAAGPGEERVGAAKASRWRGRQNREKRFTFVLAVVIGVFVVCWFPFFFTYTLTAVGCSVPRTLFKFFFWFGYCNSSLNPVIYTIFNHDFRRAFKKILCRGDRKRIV
CRHR2, sequence (Q13324 whole entry): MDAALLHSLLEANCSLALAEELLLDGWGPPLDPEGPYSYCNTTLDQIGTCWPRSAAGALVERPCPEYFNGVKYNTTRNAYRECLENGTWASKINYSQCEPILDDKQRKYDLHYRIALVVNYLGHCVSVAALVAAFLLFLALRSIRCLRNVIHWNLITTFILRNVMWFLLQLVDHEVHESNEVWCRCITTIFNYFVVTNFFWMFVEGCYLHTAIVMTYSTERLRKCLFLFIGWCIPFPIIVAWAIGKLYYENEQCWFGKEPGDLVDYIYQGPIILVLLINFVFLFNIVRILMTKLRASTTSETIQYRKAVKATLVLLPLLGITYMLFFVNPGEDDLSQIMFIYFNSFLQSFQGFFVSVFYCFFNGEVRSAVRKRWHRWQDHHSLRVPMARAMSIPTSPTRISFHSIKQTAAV
HCRTR2, sequence (O43614 whole entry): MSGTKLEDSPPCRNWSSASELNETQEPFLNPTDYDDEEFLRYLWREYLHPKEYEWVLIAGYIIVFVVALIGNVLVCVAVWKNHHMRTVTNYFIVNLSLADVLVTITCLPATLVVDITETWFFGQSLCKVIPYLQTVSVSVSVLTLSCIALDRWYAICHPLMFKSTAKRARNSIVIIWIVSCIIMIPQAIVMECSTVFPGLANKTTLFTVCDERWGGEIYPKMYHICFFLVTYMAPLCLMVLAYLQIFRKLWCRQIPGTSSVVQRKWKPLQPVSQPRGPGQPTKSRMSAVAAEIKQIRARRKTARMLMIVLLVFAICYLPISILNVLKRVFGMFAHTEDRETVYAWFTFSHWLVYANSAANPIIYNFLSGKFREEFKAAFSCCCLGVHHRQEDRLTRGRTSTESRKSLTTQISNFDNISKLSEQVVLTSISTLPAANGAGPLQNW

Cc1c(Cl)cccc1NC(=O)c1sc2nc3c(cc2c1N)C(=O)CCC3 [Compound 1]
GI50 [1]: 96.2 nM
GI50 [2]: 66.8 nM
GI50 [3]: 67.3 nM
GI50 [4]: 476 nM
GI50 [5]: 110 nM
GI50 [6]: 169 nM
GI50 [7]: 22.9 nM
GI50 [8]: 46.3 nM
GI50 [9]: 83.7 nM
GI50 [10]: 46.1 nM
GI50 [11]: 142 nM
inhibition at 10 µM [12]: 11%
inhibition at 10 µM [13]: 8%
inhibition at 10 µM [14]: 17%
inhibition at 10 µM [15]: -8%
inhibition at 10 µM [16]: -7%
inhibition at 10 µM [17]: 14%
inhibition at 10 µM [18]: 8%
inhibition at 10 µM [19]: 11%
inhibition at 10 µM [20]: 20%
inhibition at 10 µM [21]: -7%
inhibition at 10 µM [22]: -6%
inhibition at 10 µM [23]: -6%
inhibition at 10 µM [24]: 9%
inhibition at 10 µM [25]: -1%
inhibition at 10 µM [26]: -5%
inhibition at 10 µM [27]: 8%
inhibition at 10 µM [28]: 3%
inhibition at 10 µM [29]: 19%
inhibition at 10 µM [30]: -2%
inhibition at 10 µM [31]: 20%
inhibition at 10 µM [32]: 6%
inhibition at 10 µM [33]: -14%
inhibition at 10 µM [34]: -18%
inhibition at 10 µM [35]: 7%
inhibition at 10 µM [36]: -25%
% Inhibition ([36]; antagonist mode, 10 µM): no antagonist modulation was observed
inhibition at 10 µM [37]: 6%
inhibition at 10 µM [38]: -5%
inhibition at 10 µM [39]: -62%
inhibition at 10 µM [40]: -3%
inhibition at 10 µM [41]: 5%

Reference: paper PMC6149898, “GPCR Modulation of Thieno[2,3-b]pyridine Anti-Proliferative Agents” (Molecules : A Journal of Synthetic Chemistry and Natural …, 2017)
